Patent publication US4629737A, “Secondary amines and use in pharmaceutical compositions” (Beecham Group p.l.c., priority 1982, dated 1986)
Where a name gives a salt, the structure may show the parent alone. Read-outs that look alike come from different tables or passages of the source.

How the values were obtained:
blood glucose = assay: Hypoglycaemic activity: reduction in area under blood glucose curve after glucose load; assay type: in vivo, Female CFLP mice; details: Mus musculus, read-out: % Reduction in area under Blood Glucose Curve
Protocol: Female CFLP mice, weighing approximately 25 g, were fasted for 24 hours prior to the study. The compounds under study were administered orally as an aqueous solution to each of 6 mice. 30 minutes later a blood sample (10 μl) was obtained from the tail for the analysis of blood glucose. Immediately after taking this blood sample, glucose (1 g/Kg body weight) was administered subcutaneously to each mouse. 6 mice were given water as a control. Blood samples were then obtained from each mouse at 30 minute intervals for 120 minutes.
Compounds that produced a significant (P<0.05) reduction of blood glucose, compared with control mice given water, at any time interval, were considered active. The area under the blood glucose curve over the 2 hour period after the administration of the glucose was calculated for each compound and compared with the value for control animals.

[1] = Effect on energy expenditure of mice; assay type: in vivo, Female CFLP mice; details: Mus musculus; for response vs control in vivo at 21 mg/kg: 21.0 mg/kg po
Protocol: Female CFLP mice, each weighing approximately 24 g were given food and water ad lib before and during the experiment. The compounds were dissolved in water by addition of one mole of hydrochloric acid per mole of compound and these solutions were administered orally to each of 12 mice. A further 12 mice were dosed orally with water. The mice were placed in boxes through which air was drawn and the oxygen content of the air leaving the boxes was measured. The energy expenditure of the mice was calculated for 21 hours after dosing from the volume of air leaving the boxes and its oxygen content, following the principles described by J. B. de V. Weir, J. Physiol. (London), 109, 1-9 (1949).

[2] = 12.5 μmol/Kg oral, 2 h after glucose 1 g/Kg s.c., vs control
[3] = po, 3 h, read-out: Mean Energy Expenditure (0-3 h)
[4] = po, 21 h, read-out: Mean Energy Expenditure (0-21 h)
[5] = 2.5 μmol/Kg oral, 2 h after glucose 1 g/Kg s.c., vs control

## CCCOC(CNC(C)Cc1ccc(OCC(=O)OC)cc1)c1cccc(Cl)c1 (stereo not drawn) [Example 25, N-[2-(4-Carbomethoxymethoxyphenyl)-1-methylethyl]-2-^n-propoxy-2-(3-chlorophenyl)ethanamine hydrochloride]
Blood glucose; [2]
  inhibition in vivo at 12.5 µmol/kg: 53.5%
[1]; 22.8 mg/kg po, 0-3 h, read-out: Mean Energy Expenditure (0-3 h)
  response vs control in vivo at 22.8 mg/kg: 137%
[1]; 22.8 mg/kg po, 0-21 h, read-out: Mean Energy Expenditure (0-21 h)
  response vs control in vivo at 22.8 mg/kg: 105%

## CCOC(CNC(C)Cc1ccc(OCCNC)cc1)c1cccc(Cl)c1 (stereo not drawn) [Example 18, N-[2-(4-(2-Methylaminoethoxy)phenyl)-1-methylethyl]-2-ethoxy-2-(3-chlorophenyl)ethanamine dihydrochloride]
Blood glucose; po, 2 h
  inhibition in vivo at 12.5 µmol/kg: 47.5%
[1]; [3]
  response vs control in vivo at 23.2 mg/kg: 115%
[1]; [4]
  response vs control in vivo at 23.2 mg/kg: 123%

## CNCc1ccc(CC(C)NCC(OC)c2cccc(Cl)c2)cc1 (stereo not drawn) [Example 35, N-[2-(4-N'-Methylaminomethylphenyl)-1-methylethyl]-2-methoxy-2-(3-chlorophenyl)ethanamine dihydrochloride]
Blood glucose; [2]
  inhibition in vivo at 12.5 µmol/kg: 10%
[1]; 0-3 h, read-out: Mean Energy Expenditure (0-3 h)
  response vs control in vivo at 21 mg/kg: 124%
[1]; 0-21 h, read-out: Mean Energy Expenditure (0-21 h)
  response vs control in vivo at 21 mg/kg: 123%

## COC(CNC(C)Cc1ccc(OCCO)cc1)c1cccc(Cl)c1 (stereo not drawn) [Example 48, N-[2-{4-(2-Hydroxyethoxy)phenyl}-1-methylethyl]-2-methoxy-2-(3-chlorophenyl)ethanamine hydrobromide]
Blood glucose; po, 2 h
  inhibition in vivo at 0.5 µmol/kg: 31%
[1]; [3]
  response vs control in vivo at 22.2 mg/kg: 128%
[1]; [4]
  response vs control in vivo at 22.2 mg/kg: 131%

## COC(=O)CN(C)c1ccc(CC(C)NCC(OC)c2ccccc2)cc1 (stereo not drawn) [Example 58, N-[2-(4-N'-Methyl-N'-carbomethoxymethylaminophenyl)-1-methylethyl]-2-methoxy-2-phenylethanamine dihydrochloride]
Blood glucose; [5]
  inhibition in vivo at 2.5 µmol/kg: 17%
[1]; [4]
  response vs control in vivo at 22.1 mg/kg: 108%
[1]; 22.1 mg/kg po, 0-3 h, read-out: Mean Energy Expenditure (0-3 h)
  response vs control in vivo at 22.1 mg/kg: 131%

## COC(CNC(C)Cc1ccc(OCC(=O)N(C)C)cc1)c1cccc(Cl)c1 (stereo not drawn) [Example 19, N-[2-(4-Dimethylaminocarbonylmethoxyphenyl)-1-methylethyl]-2-methoxy-2-(3-chlorophenyl)ethanamine hydrochloride]
Blood glucose; po, 2 h
  inhibition in vivo at 1 µmol/kg: 56%
[1]; [3]
  response vs control in vivo at 22.1 mg/kg: 143%
[1]; [4]
  response vs control in vivo at 22.1 mg/kg: 139%

## CNC(=O)c1ccc(CC(C)NCC(OC)c2cccc(Cl)c2)cc1 (stereo not drawn) [Example 30, N-[2-(4-N'-Methylcarboxamidophenyl)-1-methylethyl]-2-methoxy-2-(3-chlorophenyl)ethanamine hydrochloride]
Blood glucose; [2]
  inhibition in vivo at 12.5 µmol/kg: 26.5%
[1]; [4]
  response vs control in vivo at 19.9 mg/kg: 115%
[1]; 19.9 mg/kg po, 0-3 h, read-out: Mean Energy Expenditure (0-3 h)
  response vs control in vivo at 19.9 mg/kg: 119%

## COc1cccc(CC(C)NCC(OC)c2cccc(Cl)c2)c1 (stereo not drawn) [Example 39, N-[2-(3-Methoxyphenyl)-1-methylethyl]-2-methoxy-2-(3-chlorophenyl)ethanamine hydrochloride]
Blood glucose; po, 2 h
  inhibition in vivo at 25 µmol/kg: 15%
[1]; [3]
  response vs control in vivo at 18.5 mg/kg: 130%
[1]; [4]
  response vs control in vivo at 18.5 mg/kg: 103%

## CNC(=O)COc1ccc(CC(C)NCC(OC)c2ccccc2)cc1 (stereo not drawn) [Example 11, N-[2-(4-Methylaminocarbonylmethoxyphenyl)-1-methylethyl]-2-methoxy-2-phenylethanamine hydrochloride]
Blood glucose; po, 2 h
  inhibition in vivo at 1 µmol/kg: 42%
[1]; [3]
  response vs control in vivo at 19.6 mg/kg: 139%
[1]; [4]
  response vs control in vivo at 19.6 mg/kg: 118%

## COC(CNC(C)Cc1ccc(OCCN(C)C)cc1)c1cccc(Cl)c1 (stereo not drawn) [Example 23, N-[2-(4-(2-Dimethylaminoethoxy)phenyl)-1-methylethyl]-2-methoxy-2-(3-chlorophenyl)ethanamine dihydrochloride hemihydrate]
Blood glucose; [5]
  inhibition in vivo at 2.5 µmol/kg: 35%
[1]; [4]
  response vs control in vivo at 23.7 mg/kg: 130%
[1]; 23.7 mg/kg po, 0-3 h, read-out: Mean Energy Expenditure (0-3 h)
  response vs control in vivo at 23.7 mg/kg: 163%

## COC(CNC(C)Cc1ccc(CO)cc1)c1cccc(Cl)c1 (stereo not drawn) [Example 31, N-[2-(4-Hydroxymethylphenyl)-1-methylethyl]-2-methoxy-2-(3-chlorophenyl)ethanamine hydrochloride]
Blood glucose; po, 2 h
  inhibition in vivo at 12.5 µmol/kg: 29%
[1]; [3]
  response vs control in vivo at 18.5 mg/kg: 103%
[1]; [4]
  response vs control in vivo at 18.5 mg/kg: 126%

## CNC(=O)COc1ccc(CC(C)NCC(OC)c2cccc(Cl)c2)cc1 (stereo not drawn) [Example 4, N-[2-(4-Methylaminocarbonylmethoxyphenyl)-1-methylethyl]-2-methoxy-2-(3-chlorophenyl)ethanamine hydrochloride]
Blood glucose; po, 2 h
  inhibition in vivo at 1 µmol/kg: 54%
[1]; [3]
  response vs control in vivo at 8.5 mg/kg: 152%
[1]; [4]
  response vs control in vivo at 8.5 mg/kg: 120%

## COC(=O)COc1ccc(C[C@@H](C)NC[C@H](OC)c2cccc(Cl)c2)cc1 (relative stereo) [Example 60, N-[2-(4-Carbomethoxymethoxyphenyl)-1-methylethyl]-2-methoxy-2-(3-chlorophenyl)ethanamine hydrochloride(RR,SS)diasteroisomer]
Blood glucose; 0.5 μmol/Kg oral, 2 h after glucose 1 g/Kg s.c., vs control
  inhibition in vivo at 0.5 µmol/kg: 30.5%
[1]; [4]
  response vs control in vivo at 8.6 mg/kg: 115%
[1]; 8.6 mg/kg po, 0-3 h, read-out: Mean Energy Expenditure (0-3 h)
  response vs control in vivo at 8.6 mg/kg: 131%

## CNCCOc1ccc(CC(C)NCC(OC)c2cccc(Cl)c2)cc1 (stereo not drawn) [Example 9, N-[2-(4-Methylaminoethoxy)phenyl)-1-methylethyl]-2-methoxy-2-(3-chlorophenyl)ethanamine dihydrochloride]
Blood glucose; [5]
  inhibition in vivo at 2.5 µmol/kg: 31%
[1]; [3]
  response vs control in vivo at 22.4 mg/kg: 168%
[1]; 22.4 mg/kg po, 0-21 h, read-out: Mean Energy Expenditure (0-21 h)
  response vs control in vivo at 22.4 mg/kg: 151%

## CCCCOC(CNC(C)Cc1ccc(OCC(=O)OC)cc1)c1cccc(Cl)c1 (stereo not drawn) [Example 42, N-[2-(4-Carbomethoxymethoxyphenyl)-1-methylethyl]-2-^n butoxy-2-(3-chlorophenyl)ethanamine hydrochloride]
Blood glucose; 5 μmol/Kg oral, 2 h after glucose 1 g/Kg s.c., vs control
  inhibition in vivo at 5 µmol/kg: 37%
[1]; [4]
  response vs control in vivo at 23.5 mg/kg: 114%
[1]; 23.5 mg/kg po, 0-3 h, read-out: Mean Energy Expenditure (0-3 h)
  response vs control in vivo at 23.5 mg/kg: 158%

## CCOC(CNC(C)Cc1ccc(C(=O)OC)cc1)c1cccc(Cl)c1 (stereo not drawn) [Example 33, N-[2-(4-Carbomethoxyphenyl)-1-methylethyl]-2-ethoxy-2-(3-chlorophenyl)ethanamine hydrochloride hemihydrate]
Blood glucose; 25 μmol/Kg oral, 2 h after glucose 1 g/Kg s.c., vs control
  inhibition in vivo at 25 µmol/kg: 52%
[1]; [4]
  response vs control in vivo at 21.1 mg/kg: 122%
[1]; 21.1 mg/kg po, 0-3 h, read-out: Mean Energy Expenditure (0-3 h)
  response vs control in vivo at 21.1 mg/kg: 148%

## COC(CNC(C)Cc1ccc(N(C)C)cc1)c1cccc(Cl)c1 (stereo not drawn) [Example 41, N-[2-(4-Dimethylaminophenyl)-1-methylethyl]-2-methoxy-2-(3-chlorophenyl)ethanamine dihydrochloride hemihydrate]
Blood glucose; po, 2 h
  inhibition in vivo at 12.5 µmol/kg: 45%
[1]; [3]
  response vs control in vivo at 21.4 mg/kg: 107%
[1]; [4]
  response vs control in vivo at 21.4 mg/kg: 116%

## COC(=O)COc1ccc(CC(C)NCC(OC(C)C)c2cccc(Cl)c2)cc1 (stereo not drawn) [Example 26, N-[2-(4-Carbomethoxymethoxyphenyl)-1-methylethyl]-2-isopropoxy-2-(3-chlorophenyl)ethanamine hydrochloride]
Blood glucose; po, 2 h
  inhibition in vivo at 2.5 µmol/kg: 45%
[1]; [3]
  response vs control in vivo at 22.8 mg/kg: 122%
[1]; [4]
  response vs control in vivo at 22.8 mg/kg: 103%

## CNCCOc1ccc(CC(C)NCC(OC)c2ccccc2)cc1 (stereo not drawn) [Example 13, N-[2-(4-(2-Methylaminoethoxy)phenyl)-1-methylethyl]-2-methoxy-2-phenylethanamine dihydrochloride]
Blood glucose; po, 2 h
  inhibition in vivo at 2.5 µmol/kg: 21%
[1]; [3]
  response vs control in vivo at 20.8 mg/kg: 145%
[1]; [4]
  response vs control in vivo at 20.8 mg/kg: 118%

## CCOC(CNC(C)Cc1ccc(OCC(=O)NC)cc1)c1cccc(Cl)c1 (stereo not drawn) [Example 16, N-[2-(4-Methylaminocarbonylmethoxyphenyl)-1-methylethyl]-2-ethoxy-2-(3-chlorophenyl)ethanamine hydrochloride]
Blood glucose; po, 2 h
  inhibition in vivo at 1 µmol/kg: 49%
[1]; [3]
  response vs control in vivo at 22.1 mg/kg: 140%
[1]; [4]
  response vs control in vivo at 22.1 mg/kg: 126%

## COC(CNC(C)Cc1ccc(OCCOc2ccccc2)cc1)c1cccc(Cl)c1 (stereo not drawn) [Example 57, N-[2-(4-(2-Phenoxyethoxy)phenyl)-1-methylethyl]-2-methoxy-2-(3-chlorophenyl)ethanamine hydrochloride]
Blood glucose; po, 2 h
  inhibition in vivo at 2.5 µmol/kg: 28%
[1]; [3]
  response vs control in vivo at 23.8 mg/kg: 178%
[1]; [4]
  response vs control in vivo at 23.8 mg/kg: 123%
